# In PMC9814544 (Communications Chemistry, 2020):
# Several values for one entry are separate records, joined by “and”; a condition that tells them apart may be missing. Equal values may be shown once. Read-outs that look alike come from different tables or passages of the source.
# Experiments:
# human LOX-1 receptor = target: T1, human LOX-1 receptor (Homo sapiens, UniProt P78380); assay: LOX-1 cellular oxLDL uptake assay (AF594-oxLDL, CHO-Trex-hLOX1); assay type: cell-based
# T1 construct: the cellular HTS screen was done using full-length LOX-1 and human oxLDL; expressed in transfected cells; host or cells: CHO-K1 T-REx (CHO-Trex-hLOX1 clone), vector pT-Rex-EXP-30-hLOX
# Excerpt: To identify small molecule inhibitors of LOX-1 mediated oxLDL uptake we developed a cellular high throughput screening (HTS) assay. Small molecule compounds were screened for their ability to block the uptake of AlexaFluor594 (AF594)-labeled human oxLDL into a CHO-K1 cell line with inducible expression of the human LOX-1 receptor. This readout was visualized and images were quantified by fluorescence microscopy (Fig. 1a). As positive controls, cells without induction of LOX-1 as well as a blocking anti-LOX-1 antibody[29] was used (Fig. 1b). More than one million different compounds were screened. Lead-like compounds (molecular weight above 270 Da) were tested at a concentration of 5 µg/ml, whereas a fragment subset (molecular weight below 270 Da) was tested at a tenfold higher concentration to ensure detection of more weakly active but ligand-efficient fragment-like compounds. Employing a hit criterion of lower than 50% of control, a hit rate of 2.8% was observed (Supplementary Fig. 1). These hits were further confirmed by performing two independent assay runs with fresh compound samples, resulting in a confirmation rate of 80% and a confirmed hit rate of 2.2% (Supplementary Fig. 2). To filter out unspecific or false-positive hits, a counter screen was developed and applied for testing the primary hits[30]–[32]. The assay format was identical to the primary assay besides employing a CHO cell line with inducible expression of human HDL scavenger receptor class B type I (SR-BI), an alternative scavenger receptor with low sequence and structural homology to human LOX-1 (Supplementary Fig. 1). Human SR-B1 is a cell surface glycoprotein most highly expressed in liver and steroidogenic tissues and plays a key role in mediating selective HDL cholesterol (HDL-C) uptake in the liver. Its regulation of HDL-C metabolism is believed to be relevant for cardiovascular health and the receptor was therefore chosen as a counter target. Using this single assay, we eliminated compounds that blocked both receptors presumably via an unspecific, non-target related mechanism (Supplementary Fig. 3).
# A recombinant CHO-K1 cell line was generated to stably express human LOX-1 under control of a Tetracycline inducible promoter: using Gateway® Cloning (Invitrogen), the hLOX-1 cDNA was cloned into pT-Rex-DEST-30 thus generating pT-Rex-EXP-30-hLOX. The CHO-K1 T-REx host cell line was then transfected with the expression vector pT-Rex-EXP-30-hLOX. Stably transfected cells were selected by Geneticin resistance. Single cell clones expressing human LOX-1 upon induction with Doxycycline were isolated and the best clone selected by qRT-PCR and FACS analysis (CHO-Trex-hLOX1 cell clone). Cells expressing human SR-BI were prepared and used for the assay in a similar fashion (CHO-Trex-hSR-B1 cell line). […]
# LOX129 (LOX-1 129-273) = target: T2, LOX129 (LOX-1 129-273) (Homo sapiens, UniProt P78380); assay: Isothermal titration calorimetry; assay type: binding
# T2 construct: 6His-tag with thrombin cleavage site (N, cleaved yes); made in house; host or cells: E. coli SHuffle cells (New England BioLabs), pET28a
# Method: For additional biophysical profiling of the specific SPR binders, isothermal titration calorimetry (ITC) was used. Due to limited solubility of the compounds, an inverse setup was used by titrating LOX129 into compound solution. The mean Kd value of three independent measurements is 7 µM (Supplementary Table 4).
# Isothermal titration calorimetry experiments were conducted on a MicroCal iTC200 instrument (Malvern) using LOX-1 that had been passed through a PD-10 desalting column (GE Healthcare) equilibrated with 20 mM Tris pH 7.3 and 150 mM NaCl. Complete saturation of 35 µM, respectively 40 µM LOX inhibitor was typically achieved by injecting 18× 2 µl aliquots of 300 µM LOX-1 at a temperature of 25 °C. As a control 300 µM LOX-1 was injected in buffer (n = 1, Supplementary Fig. 19).
# The thermodynamic binding parameters were extracted by non-linear regression analysis of the binding isotherms (MicroCal PEAQ-ITC Analysis Software). A single-site binding model was applied yielding the binding enthalpy (ΔH), stoichiometry (n), entropy (ΔS) and association constant (Ka). The binding isotherm of protein in buffer control was not subtracted during data evaluation.
# [1] = Metabolic stability in rat liver microsomes; assay type: in vitro ADME; settings: in vitro clearance as % hepatic blood flow, n = 1
# Method: The metabolic degradation of the test compound is assayed at 37 °C with microsomes. The final incubation volume of 100 µl per time point contains TRIS buffer pH 7.6 at RT (0.1 M), magnesium chloride (5 mM), microsomal protein (1 mg/ml or 0.5 mg/ml depending on species) and the test compound at a final concentration of 1 µM.
# Following a short preincubation period at 37 °C, the reactions were initiated by addition of beta-nicotinamide adenine dinucleotide phosphate, reduced form (NADPH, 1 mM) and terminated by transfering an aliquot into solvent after different time points. The quenched incubations are pelleted by centrifugation (10000 g, 5 min). An aliquot of the supernatant is assayed by LC-MS/MS for the amount of parent compound. The slope of the semi logarithmic plot of the concentration-time profile determines the half-life. The clearance is calculated by upscaling considering the amount of protein in the incubation, microsomal recovery and liver weight and normalized to the hepatic blood flow of the respective species. The number of experiments for BI-0115 is n = 1.
smiles,measurement,setting,value
CCCN1C(=O)c2ccc(Cl)cc2Nc2ncccc21 [BI-0115],IC50,"human LOX-1 receptor; eight independent measurements 1-8, Supplementary Table 1, read-out: IC50 on LOX-1, individual measurements",7.55 µM and 7.15 µM and 3.34 µM and 2.01 µM and 5.85 µM and 6.95 µM and 5.11 µM and 4.97 µM
same,extent of inhibition of oxLDL uptake in the cellular context,"human LOX-1 receptor; in words, reply to reviewers",full inhibition
same,IC50,"human LOX-1 receptor; mean, BI-0115 n = 8, BI-1580 n = 2, inhibition of AF594-oxLDL internalization, read-out: LOX-1 IC50",5.37 µM and 5.4 µM
same,IC50,"human LOX-1 receptor; single curve of Fig. 1c, n = 2 per concentration, R^2 = 0.98, read-out: IC50, representative concentration response curve",7.2 µM
same,ITC thermodynamic driving force,LOX129 (LOX-1 129-273); in words,strong entropic contribution
same,Kd,"LOX129 (LOX-1 129-273); mean of n = 3, 300 µM LOX129 dimer titrated into compound, 25 °C, read-out: ITC Kd",7 µM and 6.99 µM
same,ITC N (molar ratio protein:inhibitor),"LOX129 (LOX-1 129-273); stoichiometry, mean of n = 3",1.8 and 1.77 ±0.34
same,micr. Stab rLM,[1],95 %QH
